The structures appear in SMILES notation.

The values below come from patent US8188085B2, “Antifungal agents” (Merck Sharp & Dohme Corp., priority 2008, dated 2012).

glucan synthase (GS) prepared from Candida albicans MY1055, sequence (O13428 1-1897): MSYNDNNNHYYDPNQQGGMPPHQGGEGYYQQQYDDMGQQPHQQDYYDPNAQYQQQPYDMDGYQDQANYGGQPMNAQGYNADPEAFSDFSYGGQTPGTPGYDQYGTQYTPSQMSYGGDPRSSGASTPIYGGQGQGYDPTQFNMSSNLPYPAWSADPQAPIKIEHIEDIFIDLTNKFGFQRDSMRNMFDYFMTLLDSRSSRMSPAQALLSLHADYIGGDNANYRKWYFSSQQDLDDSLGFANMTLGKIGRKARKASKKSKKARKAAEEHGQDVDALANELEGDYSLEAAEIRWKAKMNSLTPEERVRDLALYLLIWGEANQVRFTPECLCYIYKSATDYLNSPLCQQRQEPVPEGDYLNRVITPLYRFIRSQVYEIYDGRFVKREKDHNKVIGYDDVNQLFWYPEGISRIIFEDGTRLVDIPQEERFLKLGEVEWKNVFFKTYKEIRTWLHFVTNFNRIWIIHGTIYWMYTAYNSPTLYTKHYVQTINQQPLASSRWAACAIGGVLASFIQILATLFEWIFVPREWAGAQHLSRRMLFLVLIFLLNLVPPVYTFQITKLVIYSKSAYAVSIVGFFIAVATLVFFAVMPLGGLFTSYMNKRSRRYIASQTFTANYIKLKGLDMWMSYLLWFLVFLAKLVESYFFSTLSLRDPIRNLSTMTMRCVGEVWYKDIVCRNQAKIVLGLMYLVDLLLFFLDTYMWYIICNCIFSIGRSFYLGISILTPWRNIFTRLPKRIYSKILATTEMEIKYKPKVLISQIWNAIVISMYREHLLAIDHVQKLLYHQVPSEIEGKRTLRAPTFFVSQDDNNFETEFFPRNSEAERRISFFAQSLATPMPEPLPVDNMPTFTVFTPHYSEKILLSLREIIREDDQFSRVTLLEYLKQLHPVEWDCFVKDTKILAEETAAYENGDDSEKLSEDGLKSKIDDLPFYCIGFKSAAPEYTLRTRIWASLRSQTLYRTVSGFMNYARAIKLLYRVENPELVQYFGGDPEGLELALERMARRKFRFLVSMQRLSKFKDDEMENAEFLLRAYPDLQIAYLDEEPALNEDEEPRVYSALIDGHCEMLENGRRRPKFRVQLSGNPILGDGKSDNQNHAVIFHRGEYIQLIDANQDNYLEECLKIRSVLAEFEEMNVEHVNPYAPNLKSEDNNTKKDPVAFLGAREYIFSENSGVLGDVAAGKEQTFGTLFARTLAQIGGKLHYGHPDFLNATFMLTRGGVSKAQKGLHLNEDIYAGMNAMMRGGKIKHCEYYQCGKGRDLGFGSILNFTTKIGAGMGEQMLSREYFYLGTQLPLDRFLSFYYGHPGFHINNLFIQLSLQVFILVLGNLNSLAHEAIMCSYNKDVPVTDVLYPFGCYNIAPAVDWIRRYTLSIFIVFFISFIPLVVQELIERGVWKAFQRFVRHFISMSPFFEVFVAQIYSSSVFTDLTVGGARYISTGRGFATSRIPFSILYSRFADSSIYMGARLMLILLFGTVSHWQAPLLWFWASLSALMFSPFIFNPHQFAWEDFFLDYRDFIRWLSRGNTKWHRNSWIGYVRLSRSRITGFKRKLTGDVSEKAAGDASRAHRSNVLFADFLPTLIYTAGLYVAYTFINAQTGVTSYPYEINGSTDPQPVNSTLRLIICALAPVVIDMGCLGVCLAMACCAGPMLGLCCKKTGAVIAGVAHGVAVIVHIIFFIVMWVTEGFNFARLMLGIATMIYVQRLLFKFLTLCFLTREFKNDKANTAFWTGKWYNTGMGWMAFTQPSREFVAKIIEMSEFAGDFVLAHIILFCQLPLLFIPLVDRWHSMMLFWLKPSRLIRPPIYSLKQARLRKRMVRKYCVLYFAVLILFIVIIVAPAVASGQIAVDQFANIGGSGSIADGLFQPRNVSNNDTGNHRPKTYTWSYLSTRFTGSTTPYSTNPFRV

The target of the assay is glucan synthase (GS) prepared from Candida albicans MY1055 (Candida albicans, UniProt O13428). Kind of assay: Glucan synthase inhibition (polymerization assay, 96-well). It counts as biochemical. To be noted: GS from C. albicans MY1055; 60 min incubation at 22° C.; read-out: Candida Albicans GS IC50 (converted). The essentials:
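Partially purified glucan synthase from C. albicans MY1055 membranes incorporated 0.5 mM ³H-UDPG with 25 μM GTP-γ-S, HEPES pH 7.5, over 60 min at 22 °C. TCA-precipitated glucan was counted by scintillation. IC50 (ng/mL) came from sigmoidal fits of duplicate 3-fold dilution series.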
In general, IC50 refers to the concentration needed to halve the response being measured. For `CCOC(=O)c1nccn1[C@@H]1C[C@@]23COC[C@](C)([C@@H]2CC[C@H]2C3=CC[C@@]3(C)[C@H](C(=O)O)[C@@](C)([C@H](C)C(C)C)CC[C@]23C)[C@H]1OC[C@](C)(N)C(C)C` [Example 300, (1S,4aR,6aS,7R,8R,10aR,10bR,12aR,14R,15R)-15-[[(2R)-2-amino-2,3-dimethylbutyl]oxy]-8-[(1R)-1,2-dimethylpropyl]-14-[2-(ethoxycarbonyl)-1H-imidazol-1-yl]-1,6,6a,7,8,9,10,10a,10b,11,12,12a-dodecahydro-1,6a,8,10a-tetramethyl-4H-1,4a-propano-2H-phenanthro[1,2-c]pyran-7-carboxylic acid], the IC50 is 675 nM.

On to `CC(C)[C@@H](C)[C@@]1(C)CC[C@]2(C)[C@H]3CC[C@@H]4[C@@]5(COC[C@@]4(C)[C@@H](OC[C@@]4(C)CCCN4)[C@H](n4ncnc4-c4ccncc4)C5)C3=CC[C@@]2(C)[C@@H]1C(=O)O` [Example 307, (1S,4aR,6aS,7R,8R,10aR,10bR,12aR,14R,15R)-8-[(1R)-1,2-dimethylpropyl]-15-[[(2R)-2-methyl-2-pyrrolidinyl]methoxy]-14-[5-(4-pyridinyl)-1H-1,2,4-triazol-1-yl]-1,6,6a,7,8,9,10,10a,10b,11,12,12a-dodecahydro-1,6a,8,10a-tetramethyl-4H-1,4a-propano-2H-phenanthro[1,2-c]pyran-7-carboxylic acid], for which the IC50 was 5.6 nM.

Consider `CN[C@@](C)(CO[C@H]1[C@H](n2nccc2-c2ccncc2)C[C@@]23COC[C@]1(C)[C@@H]2CC[C@H]1C3=CC[C@@]2(C)[C@H](C(=O)O)[C@@](C)([C@H](C)C(C)C)CC[C@]12C)C(C)C` [Example 312, (1S,4aR,6aS,7R,8R,10aR,10bR,12aR,14R,15R)-15-[[(2R)-2,3-dimethyl-2-(methylamino)butyl]oxy]-8-[(1R)-1,2-dimethylpropyl]-14-[5-(4-pyridinyl)-1H-pyrazol-1-yl]-1,6,6a,7,8,9,10,10a,10b,11,12,12a-dodecahydro-1,6a,8,10a-tetramethyl-4H-1,4a-propano-2H-phenanthro[1,2-c]pyran-7-carboxylic acid], for which the IC50 was 17.8 nM.
